In patent publication US20190388513A1, “OIL BASED FORMULATIONS FOR SUBLINGUAL AND BUCCAL DELIVERY” (BIOLINGUS IP LLC, priority 2017, published 2019):

Legend:
[1] = Sublingual resveratrol: plasma resveratrol levels (Cmax, AUC) in rats, LC-MS/MS (Example 7); assay type: in vivo; details: sublingual 10 mg in oil formulation (CSSR6d) versus oral 10 mg in sugar syrup, SD rats, up to 24 hours
Description: Resveratrol was suspended in 50% sugar solution and the mixture spun until homogenous for oral ingestion. Two groups of each three SD rats were treated. The treatment groups were administered as follows: 1) sublingual resveratrol in oil formulation (Group 1: SL-resveratrol 10 mg in oil formulation); 2) oral administered resveratrol in sugar syrup (Group 2: OP resveratrol 10 mg in sugar syrup). Nine blood sampling time points up to 24 hours post dosing per anima […]. Plasma samples bio analysis was performed with LC-MS/MS method.

diabetic mice [2] = experiment: Sublingual insulin aspart study: blood glucose in diabetic mice (Example 1); assay type: in vivo, mice (strain C57/BL6); details: sublingual 100 U/kg insulin aspart in TPMCEu oil, without exenatide, versus SC insulin aspart 1 IU/kg
Description: For the experiments described below, mice of approximately 60 g were used. 5 μL of the resulting oil mixture comprising Insulin Aspart was placed underneath the tongue of anesthetised diabetic mice. […] Five groups of five mice were treated. […] These were compared to 4) 1 IU/kg subcutaneously administered insulin aspart (SC-Insulin aspart) and 5) sublingual oil placebo ([…]).

diabetic mice [3] = experiment: Sublingual insulin glargine study, solid dosage formulation: blood glucose in diabetic mice (Example 2); assay type: in vivo, mice (strain C57/BL6); details: sublingual insulin glargine 10 or 50 IU/kg absorbed on solid dosage formulation, versus SC insulin glargine 1 IU/kg
Description: One solid dosage formulation was placed underneath the tongue of anesthetised diabetic mice. Blood glucose was measured at 0 h, 1 h, 2 h, 4 h, 8 h, 20 h and 24 h.
Four groups of five mice were treated. The treatment groups were administered as follows: 1) sublingual solid dosage formulation placebo (Group 1: SL-CSSR 4; wherein “CSSR-4” means a solid formulation containing vitamin E, PEG 200 and flavouring oils). 2) 1 IU/kg subcutaneously administered insulin glargine (Group 2: SC-Insulin glargine 1 IU/kg); 3) 10 IU/kg sublingually administered insulin glargine (Group 3: SL-Insulin glargine 10 IU/kg); and 4) 50 IU/kg sublingually administered insulin glargine (Group 4: SL-Insulin glargine 50 IU/kg). For animal studies using solid formulations, tablets were dissolved in water to form a gel. The gel was then placed under the tongue of the mice instead of the tablet.

Oc1ccc(C=Cc2cc(O)cc(O)c2)cc1 [resveratrol]
Absorbability relative to orally administered resveratrol (Cmax and AUC of blood resveratrol levels) [1]: 20 to 40 times

insulin aspart
Blood glucose levels / AUC0-240min, compared with subcutaneous delivery (diabetic mice [2]): comparable to subcutaneous delivery of insulin aspart

insulin glargine
Blood glucose levels 0-24 h, compared with subcutaneous delivery (diabetic mice [3]): comparable to subcutaneous delivery of insulin glargine
